US4866046A, “Low-dosage sublingual aspirin” (Top Laboratories, Inc., priority 1988, dated 1989)

Assays:
Platelet Aggregation [1] = test: Platelet aggregation inhibition in volunteers, thrombin as aggregating agent; type: in vivo, human; conditions: daily dose, average (range)
Procedure: Platelet aggregation was measured against thrombin as aggregating agent. Tablets were all similarly made as described in Example 1.

Cyclooxygenase = Cyclooxygenase inhibition in volunteers after daily aspirin tablets; type: in vivo, human
Platelet Aggregation [2] = conditions: dose of 325 mg/day, in some people; cited from earlier work

CC(=O)Oc1ccccc1C(=O)O [Aspirin, acetylsalicylic acid]
% Inhibition, after 5-7 days, of Platelet Aggregation (Platelet Aggregation [1]; 10 mg. tablet, swallowed): 27.5 (0-87) %
% Inhibition, after 5-7 days, of Platelet Aggregation (Platelet Aggregation [1]; 20 mg. sublingual tablet): 45.3 (35-60) %
% Inhibition, after 5-7 days, of Platelet Aggregation (Platelet Aggregation [1]; 80 mg. sublingual tablet (tablet of Example 1)): 95.7 (88-100) %
% Inhibition, after 5-7 days, of Platelet Aggregation (Platelet Aggregation [1]; 80 mg. tablet, swallowed): 44.2 (5-98) %
% Inhibition, after 5-7 days, of Platelet Aggregation (Platelet Aggregation [1]; 325 mg. sublingual tablet): 78.5 (62-98) %
inhibition at 325 mg (Platelet Aggregation [1]; Homo sapiens, Platelet, 325 mg tablet, swallowed, read-out: % Inhibition, after 5-7 days, of Platelet Aggregation): 70%
% Inhibition, after 5-7 days, of Cyclooxygenase (Cyclooxygenase; 10 mg. tablet, swallowed, average (range) of volunteers): 55.6 (11-95) %
% Inhibition, after 5-7 days, of Cyclooxygenase (Cyclooxygenase; 20 mg. sublingual tablet, average (range)): 83.3 (75-94) %
% Inhibition, after 5-7 days, of Cyclooxygenase (Cyclooxygenase; 80 mg. sublingual tablet (tablet of Example 1), average (range)): 99.0 (95-100) %
% Inhibition, after 5-7 days, of Cyclooxygenase (Cyclooxygenase; 80 mg. tablet, swallowed, average (range)): 76.3 (13-100) %
% Inhibition, after 5-7 days, of Cyclooxygenase (Cyclooxygenase; 325 mg tablet, swallowed, average (range)): 97.7 (25-100) %
% Inhibition, after 5-7 days, of Cyclooxygenase (Cyclooxygenase; 325 mg. sublingual tablet, average): 100.0%
inhibit platelet aggregation (Platelet Aggregation [2]): 90%
